For data set [1], the system named is Human Foreskin Fibroblast (HFF). Briefly: Cytotoxicity assay, WST-1 cell proliferation reagent on HFF. In kind it is cell-based. How it is done:
Toxicity assays used WST-1 cell proliferation reagent (Roche) as in Fomovska et al. ([2012a]). HFF were grown on a flat, clear-bottomed, black 96-well plate. Confluent HFF were treated with inhibitory compounds at concentrations of 10 and 50 μM. Compounds were diluted in IMDM-C, and 20 μL were added to each designated well, with triplicates for each condition. A gradient with 2-folddecreasing concentrations of DMSO from 10 to 0% in colorless, translucent IMDM-C was used as a control. The plate was incubated for 72 h at 37°C. Ten microlitre WST-1 reagent (Roche) were added to each well. Cells were incubated for 30–60 min. Absorbance was read using a fluorimeter at 420 nm. A higher degree of color change (and absorbance) indicated mitochondrial activity and cell viability.

Data set [2] relates to T. gondii mitochondrial membrane potential. Briefly: T. gondii mitochondrial membrane potential, safranine method. Format: cell-based, Toxoplasma gondii. The following applies: doses as high as 4 μM. As for the experimental part:
The mitochondrial membrane potential was measured by the safranine method according to Vercesi et al. ([1998]). Freshly egressed T. gondii tachyzoites were filtered and washed twice with intracellular buffer (125 mM sucrose, 65 mM KCl, 10 mM HEPES-KOH buffer, pH 7.2, 1 mM MgCl2, and 2.5 mM potassium phosphate). After washing, the parasites were resuspended in the same buffer at 10^9/mL. An aliquot of 50 μL of this suspension was added to a cuvette containing Safranin O, 2.5 μM and Succinate 1 mM in final volume of 2 mL of the intracellular buffer. The fluorescence was measured with a Hitachi 7000 spectrofluorometer with settings Ex. 495/Em. 586. Once the baseline fluorescence was stable, 30 μM digitonin was added to permeabilize the parasites. Eighty five seconds after permeabilization, the THQ derivatives, dissolved in DMSO, were added. Five micromolars of FCCP (Carbonyl cyanide-4-(trifluoromethoxy) phenylhydrazone) was used as an uncoupler reference for calculations and its effect was considered 100%. We used similar conditions for measuring the mitochondrial membrane potential of mammalian cells with the following changes: the mammalian cells were resuspended at 10^8/mL. We also used 50 μL of this suspension for each experiment in a total volume of 2 mL. The substrate used for mammalian cells was 5 mM glutamate and 5 mM malate. A higher concentration of digitonin (50 μM) was used to permeabilize the mammalian cells. The compounds were added at ~400 s after permeabilization. Each experiment was repeated at least three times in duplicates. Statistical analysis, unpaired student t-test, was performed using GraphPad Prism 8.0 (GraphPad Software, Inc., San Diego, CA).
Mitochondrial membrane potential measurements were performed with permeabilized T. gondii tachyzoites in suspension using safranin O, which loads into polarized membranes [see section Materials and Methods in the Supplemental Materials (Vercesi et al., [1998])]. T. gondii tachyzoites were permeabilized with digitonin to allow the mitochondrial substrate succinate to cross the membrane and energize the mitochondrion. The fluorescence of safranin O, which loads into energized mitochondria was used to measure the membrane potential. The energized state of the mitochondrion is observed by a decrease in fluorescence (Figures 3A,C,E). Trifluoromethoxy carbonylcyanide phenylhydrazone (FCCP) was used to depolarize the membrane, which is observed as an increase in fluorescence (Figures 3A,B). JAG21 depolarized the membrane potential even at concentrations as low as 2 nM (Figures 3C,D). JAG21 and Atovaquone had similar effects on the mitochondrial membrane potential (Figure 3D). […]

Data set [3] concerns P. falciparum strains D6, TM91-C235, W2, C2B. Briefly: Malaria SYBR Green I-Based Fluorescence (MSF) assay. Format: cell-based. The following applies: Plasmodium falciparum. As for the experimental part:
Malaria potency testing in vitro was performed using 4 different P. falciparum strains, D6, TM91-C235, W2, and C2B. The D6 strain is a drug sensitive strain from Sierra Leone, the TM91-C235 strain is a multi-drug resistant strain from Thailand, the W2 strain is a chloroquine resistant strain from Thailand, and the C2B strain is a multi-drug resistant strain with resistance against atovaquone. These assays were performed as described below.
Compound activity against P. falciparum, was tested using the Malaria SYBR Green I–Based Fluorescence (MSF) Assay. The complete method for performing this microtiter assay is described in previous work published by Plouffe et al. ([2008]) and Johnson et al. ([2007]). In brief, this assay uses the binding of the fluorescent dye SYBR Green I to malaria DNA to measure parasite growth in the presence of 2-fold diluted experimental or control. The relative fluorescence of the intercalated SYBR Green I proportional to parasite growth, and inhibitory compounds will result in lower observed fluorescence compared to untreated parasites.

Data set [4] has as its system T. gondii RH-YFP tachyzoites. The data set can be described thus: In vitro challenge assay, RH strain YFP tachyzoites in HFF. The settings on record: Toxoplasma gondii; RH-YFP tachyzoites in HFF; Figure 1A; read-out: Tachy IC50. Format: cell-based. How it is done: RH strain YFP Tachyzoites. Protocol was adapted from Fomovska et al. ([2012a],[b]) for HFF. HFF were cultured on a flat, clear-bottomed, black 96-well plate to 90–100% confluence. IMDM (1x, [+] glutamine, [+] 25 mM HEPES, [+] Phenol red, 10% FBS [Gibco, Denmark]) was removed and replaced with IMDM-C(1x, [+] glutamine, [+] 25 mM HEPES, [–] Phenol red, 10% FBS)[Gibco, Denmark]). RH-YFP, lysed from host cells by passing twice through a 27-gauge needle, were counted, then diluted to 32,000/mL in IMDM-C. HFF were infected with 3200 RH-YFP, then returned to 37°C, CO2 (5%) incubator for 1–2 h for infection. Various concentrations of the compounds in 20 μL IMDM-C were added to each well. There were triplicates for each condition. Controls were pyrimethamine/sulfadiazine (standard treatment), 0.1% DMSO only, HFF only, and untreated cultures of HFF infected with 2-fold dilutions of YFP expressing parasites (called “YFP gradient” to establish amount of color from known numbers of YFP expressing parasites). Cells were incubated at 37°C for 72 h. Plates were read using a fluorimeter (Synergy H4 Hybrid Reader, BioTek) to ascertain amount of relative fluorescence units (RFU) YFP, to measure parasite burden after treatment. Data were collected using Gen5 software with IC50 calculated by graphical analysis in Excel.
An initial screening assay of 10 μM, 1 μM, 100 nM, and 10 nM of the compounds was performed. Compounds were not considered effective or pursued for further analysis if there was no inhibition of tachyzoites at 1 μM. If compounds were effective at 1 μM, another experiment was performed to assess effect at 1 μM, 500, 250, 125, 62.5, and 31.25 nM.

Another data set concerns T. gondii RPS13Δ. The data set can be described thus: RPS13Δ infection of interferon γ receptor knockout mice. In kind it is in vivo, Toxoplasma gondii. The settings on record: mice to start 5 (Tafenoquine), 5 (JAG21). How it is done: In pilot studies, herein, interferon γ receptor knockout mice that were not treated were observed following infection. At 7 and at 14 days following infection, spleen, and liver were removed and immune peroxidase stained. At 14 days a group of mice were treated with anhydrotetracycline and when a subset of these mice died, their spleen and liver were removed and immune peroxidase stained.
As in the pilot studies, this RPS13 Δ parasite also was used to infect interferon γ receptor knockout mice in a treatment study. In this separate study, groups of mice were infected with RPS13 Δ. They were treated with tafenoquine on day−1, or JAG21 for 14 days 2 h after infection, or the two together with tafenoquine on day−1 and JAG21 for the first 14 days, or with diluent only for 14 days, as described above. For the initial 14 days, no tetracycline was administered. After that time tetracycline was administered. Mice were observed each day. At the time they appeared to have substantial illness or at the termination of the experiment they were euthanized, tissues fixed in formalin and stained with hematoxylin and eosin or immunoperoxidase stained and parasite burden was assessed.

Where [5] appears, read: C2B, multi-drug resistant strain with resistance against atovaquone, read-out: SYBR Green C2B IC50.
[6] abbreviates: D6, drug sensitive strain, read-out: SYBR Green D6 IC50.
Setting [7] is: TM91-C235, multi-drug resistant strain, read-out: SYBR Green C235 IC50.
[8] abbreviates: W2, chloroquine resistant strain, read-out: SYBR Green W2 IC50.

Consider 4 compounds from publication PMC7311950, “Potent Tetrahydroquinolone Eliminates Apicomplexan Parasites” (Frontiers in Cellular and Infection Microbiology, 2020).

Like-named read-outs stand apart in the source and are kept apart here.

What is called IC50 is the midpoint of a concentration-inhibition curve.

In data set [1], `COc1ccc(Oc2ccc(-c3c(C)[nH]c4c(c3=O)CCCC4)cc2)cc1OC` [AS033] had a Toxicity of 5 µM.

For the compound `Cc1[nH]c2c(c(=O)c1-c1ccc(Oc3ccc(C(=O)O)cc3)cc1)CCCC2` [JAG046], the “effect on mitochondrial membrane potential” value in data set [2] was “almost no effect”. Besides, the IC50 is over 20 µM in data set [3] (setting [5]); 6.72 µM in data set [3] (setting [6]); over 20 µM in data set [3] (setting [7]); over 20 µM in data set [3] (setting [8]); over 10 µM in data set [4].

Turning to `Cc1[nH]c2c(c(=O)c1-c1ccc(Oc3cccc(C(=O)O)c3)cc1)CCCC2` [JAG047], the “effect on mitochondrial membrane potential” value in data set [2] is reported as “almost no effect”. Further, the IC50 in data set [3] (setting [5]) was 7.78 µM; in data set [3] (setting [6]), 3.75 µM; in data set [3] (setting [7]), 12.6 µM; in data set [3] (setting [8]) it was 9.07 µM; in data set [4], over 10 µM.

For the compound `COc1cc(C)c2c(Oc3cccc(C(F)(F)F)c3)c(OC)cc(NC(C)CCCN)c2n1` (stereo not drawn) [TAF, tafenoquine, reference compound], the “number of mice left at 42” value with T. gondii RPS13Δ (Experiment 1, 6 (Tafenoquine+JAG21)) stood at 1. Also, in the data set on T. gondii RPS13Δ (Experiment 2, 9 (Tafenoquine+JAG21)), the “number of mice left at 37” value is 2.
